Columns and labels:
Experiment in all cases: relative viability (nuclei count vs DMSO), 5 days (fraction); higher = more cells survive
[1] = compound: Cn1cc(-c2cnn3c(N)c(Br)c([C@@H]4CCCNC4)nc23)cn1 + CS(=O)(=O)N1CCN(Cc2cc3nc(-c4cccc5[nH]ncc45)nc(N4CCOCC4)c3s2)CC1 [Pictilisib] (partner 1 µM)
How it was run: (§1)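 Relative viability divides the nuclei count in treated wells by that in vehicle wells. Lung cancer cell lines were seeded in 1536-well plates, dosed by pin tool the next day, and fixed and stained after 5 days in one step with final 0.05% Triton X-100, 1% formaldehyde and 1 ug/ml Hoechst. Dosing was a single drug or a fixed anchor-drug dose plus five library-drug doses (not always all listed) in √10 steps, and values are medians of duplicate plates imaged at 4×.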

[2] = compound: Cn1cc(-c2cnn3c(N)c(Br)c([C@@H]4CCCNC4)nc23)cn1 + C[C@@H](Oc1cc(-c2cnn(C3CCNCC3)c2)cnc1N)c1c(Cl)ccc(F)c1Cl [Crizotinib] (partner 1 µM)
How it was run: as §1

[3] = compound: Cn1cc(-c2cnn3c(N)c(Br)c([C@@H]4CCCNC4)nc23)cn1 + Cc1nc(NC(=O)N2CCC[C@H]2C(N)=O)sc1-c1ccnc(C(C)(C)C(F)(F)F)c1 [Alpelisib] (partner 2 µM)
How it was run: as §1

[4] = compound: Cn1cc(-c2cnn3c(N)c(Br)c([C@@H]4CCCNC4)nc23)cn1 + CS(=O)(=O)CCNCc1ccc(-c2ccc3ncnc(Nc4ccc(OCc5cccc(F)c5)c(Cl)c4)c3c2)o1 [Lapatinib] (partner 2 µM)
How it was run: as §1

[5] = compound: Cn1cc(-c2cnn3c(N)c(Br)c([C@@H]4CCCNC4)nc23)cn1 + CC(C)C[C@H](NC(=O)[C@H](Cc1ccccc1)NC(=O)c1cnccn1)B(O)O [Bortezomib] (partner 0.002 µM)
How it was run: as §1

[6] = compound: Cn1cc(-c2cnn3c(N)c(Br)c([C@@H]4CCCNC4)nc23)cn1 + O=C(c1cc(Cc2n[nH]c(=O)c3ccccc23)ccc1F)N1CCN(C(=O)C2CC2)CC1 [Olaparib] (partner 8 µM)
How it was run: as §1

[7] = compound: Cn1cc(-c2cnn3c(N)c(Br)c([C@@H]4CCCNC4)nc23)cn1 + CC1(C)CCC(c2ccc(Cl)cc2)=C(CN2CCN(c3ccc(C(=O)NS(=O)(=O)c4ccc(N[C@H](CCN5CCOCC5)CSc5ccccc5)c(S(=O)(=O)C(F)(F)F)c4)cc3)CC2)C1 [Navitoclax] (partner 0.5 µM)
How it was run: as §1

[8] = compound: Cn1cc(-c2cnn3c(N)c(Br)c([C@@H]4CCCNC4)nc23)cn1 + COc1cc2c(Oc3ccc(NC(=O)C4(C(=O)Nc5ccc(F)cc5)CC4)cc3F)ccnc2cc1OCCCN1CCOCC1 [Foretinib] (partner 0.25 µM)
How it was run: as §1

[9] = compound: Cn1cc(-c2cnn3c(N)c(Br)c([C@@H]4CCCNC4)nc23)cn1 + C[C@]1(O)C[C@@H](c2nc(-c3ccc4ccc(-c5ccccc5)nc4c3)c3c(N)nccn32)C1 [Linsitinib] (partner 1 µM)
How it was run: as §1

[10] = compound: Cn1cc(-c2cnn3c(N)c(Br)c([C@@H]4CCCNC4)nc23)cn1
How it was run: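 Viability here means nuclei in treated wells divided by nuclei in vehicle wells, reported as the median across plates. Only plates with control CV below 25% and at least one doubling passed. Lung cancer cell lines in 1536-well plates were exposed to five √10-spaced library-drug doses for 5 days and counted from 4× Hoechst images in MetaXpress.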

[11] = compound: Cn1cc(-c2cnn3c(N)c(Br)c([C@@H]4CCCNC4)nc23)cn1 + CCNC(=O)c1noc(-c2cc(C(C)C)c(O)cc2O)c1-c1ccc(CN2CCOCC2)cc1 [Luminespib] (partner 0.01 µM)
How it was run: as §1

[12] = compound: Cn1cc(-c2cnn3c(N)c(Br)c([C@@H]4CCCNC4)nc23)cn1 + Cc1nc(Nc2ncc(C(=O)Nc3c(C)cccc3Cl)s2)cc(N2CCN(CCO)CC2)n1 [Dasatinib] (partner 0.075 µM)
How it was run: as §1

[13] = compound: Cn1cc(-c2cnn3c(N)c(Br)c([C@@H]4CCCNC4)nc23)cn1 + N=C(N)NC(=N)NCCc1ccccc1 [Phenformin] (partner 250 µM)
How it was run: as §1

[14] = compound: Cn1cc(-c2cnn3c(N)c(Br)c([C@@H]4CCCNC4)nc23)cn1 + COc1cccc2cc(-c3nc([C@H]4CC[C@H](C(=O)O)CC4)n4ncnc(N)c34)[nH]c12 [OSI-027] (partner 0.5 µM)
How it was run: as §1

[15] = compound: Cn1cc(-c2cnn3c(N)c(Br)c([C@@H]4CCCNC4)nc23)cn1 + Cc1cc(Nc2cc(N3CCN(C)CC3)nc(Sc3ccc(NC(=O)C4CC4)cc3)n2)n[nH]1 [Tozasertib] (partner 0.1 µM)
How it was run: as §1

NCI-H1299 gave a relative viability ([1]; first compound 0.05 µM) of 0.876, a relative viability ([1]; first compound 0.1581 µM) of 0.562 and a relative viability ([1]; first compound 0.5 µM) of 0.462. The relative viability ([1]; first compound 1.581 µM) was 0.175, the relative viability ([1]; first compound 5 µM) was 0.223 and the relative viability ([2]; first compound 0.05 µM) was 0.992. It also gave a relative viability ([2]; first compound 0.1581 µM) of 0.931, a relative viability ([2]; first compound 0.5 µM) of 0.965 and a relative viability ([2]; first compound 1.581 µM) of 0.676. The relative viability ([2]; first compound 5 µM) was 0.707, the relative viability ([3]; first compound 0.05 µM) was 1.03 and the relative viability ([3]; first compound 0.1581 µM) was 1.13. The relative viability ([3]; first compound 0.5 µM) was 1.09, the relative viability ([3]; first compound 1.581 µM) was 1.05 and the relative viability ([3]; first compound 5 µM) was 0.954. It also gave a relative viability ([4]; first compound 0.05 µM) of 0.982, a relative viability ([4]; first compound 0.1581 µM) of 0.976 and a relative viability ([4]; first compound 0.5 µM) of 0.923. It also gave a relative viability ([4]; first compound 1.581 µM) of 0.767, a relative viability ([4]; first compound 5 µM) of 0.757 and a relative viability ([5]; first compound 0.05 µM) of 0.942. For the same cell line, the relative viability ([5]; first compound 0.1581 µM) was 1.04, the relative viability ([5]; first compound 0.5 µM) was 0.994 and the relative viability ([5]; first compound 1.581 µM) was 1.03. For the same cell line, the relative viability ([5]; first compound 5 µM) was 0.985, the relative viability ([6]; first compound 0.05 µM) was 0.981 and the relative viability ([6]; first compound 0.1581 µM) was 0.968. It also gave a relative viability ([6]; first compound 0.5 µM) of 1, a relative viability ([6]; first compound 1.581 µM) of 0.738 and a relative viability ([6]; first compound 5 µM) of 0.472. For the same cell line, the relative viability ([7]; first compound 0.05 µM) was 1.03, the relative viability ([7]; first compound 0.1581 µM) was 1.06 and the relative viability ([7]; first compound 0.5 µM) was 1.08. For the same cell line, the relative viability ([7]; first compound 1.581 µM) was 1.02, the relative viability ([7]; first compound 5 µM) was 0.936 and the relative viability ([8]; first compound 0.05 µM) was 1.08. The relative viability ([8]; first compound 0.1581 µM) was 1.14, the relative viability ([8]; first compound 0.5 µM) was 1.12 and the relative viability ([8]; first compound 1.581 µM) was 0.988. It also gave a relative viability ([8]; first compound 5 µM) of 0.833, a relative viability ([9]; first compound 0.05 µM) of 1.02 and a relative viability ([9]; first compound 0.1581 µM) of 1.04. It also gave a relative viability ([9]; first compound 0.5 µM) of 0.959, a relative viability ([9]; first compound 1.581 µM) of 0.833 and a relative viability ([9]; first compound 5 µM) of 0.626. For the same cell line, the relative viability ([10]; 0.05 µM) was 1.03, the relative viability ([10]; 0.1581 µM) was 1.07 and the relative viability ([10]; 0.5 µM) was 1.01. For the same cell line, the relative viability ([10]; 1.581 µM) was 0.926 and the relative viability ([10]; 5 µM) was 0.795.
In the case of NCI-H1623, the relative viability ([11]; first compound 0.05 µM) is reported as 0.41, the relative viability ([11]; first compound 0.1581 µM) is reported as 0.399 and the relative viability ([11]; first compound 0.5 µM) is reported as 0.538. For the same cell line, the relative viability ([11]; first compound 1.581 µM) was 0.851, the relative viability ([11]; first compound 5 µM) was 0.322 and the relative viability ([12]; first compound 0.05 µM) was 0.475. It also gave a relative viability ([12]; first compound 0.1581 µM) of 0.474, a relative viability ([12]; first compound 0.5 µM) of 0.536 and a relative viability ([12]; first compound 1.581 µM) of 0.477. For the same cell line, the relative viability ([12]; first compound 5 µM) was 0.399, the relative viability ([13]; first compound 0.05 µM) was 0.561 and the relative viability ([13]; first compound 0.1581 µM) was 0.628. The relative viability ([13]; first compound 0.5 µM) was 0.632, the relative viability ([13]; first compound 1.581 µM) was 0.567 and the relative viability ([13]; first compound 5 µM) was 0.432. The relative viability ([14]; first compound 0.05 µM) was 0.426, the relative viability ([14]; first compound 0.1581 µM) was 0.456 and the relative viability ([14]; first compound 0.5 µM) was 0.407. It also gave a relative viability ([14]; first compound 1.581 µM) of 0.418, a relative viability ([14]; first compound 5 µM) of 0.382 and a relative viability ([8]; first compound 0.05 µM) of 0.811. For the same cell line, the relative viability ([8]; first compound 0.1581 µM) was 0.831, the relative viability ([8]; first compound 0.5 µM) was 0.97 and the relative viability ([8]; first compound 1.581 µM) was 0.844. For the same cell line, the relative viability ([8]; first compound 5 µM) was 0.606, the relative viability ([15]; first compound 0.05 µM) was 0.425 and the relative viability ([15]; first compound 0.1581 µM) was 0.421. For the same cell line, the relative viability ([15]; first compound 0.5 µM) was 0.467, the relative viability ([15]; first compound 1.581 µM) was 0.41 and the relative viability ([15]; first compound 5 µM) was 0.38. The relative viability ([10]; 0.05 µM) was 0.984, the relative viability ([10]; 0.1581 µM) was 0.9 and the relative viability ([10]; 0.5 µM) was 1.04. The relative viability ([10]; 1.581 µM) was 0.942 and the relative viability ([10]; 5 µM) was 0.755.
